The record followed here is ChEMBL document CHEMBL3991601, “The target landscape of clinical kinase drugs” (Science, 2017).

Active and inactive are the calls of the source. For most assays here, no stated cut-off is given here; in the data, actives have a measured Kd and inactives only a lower limit.

Experiment [1] deals with BMP-2-inducible protein kinase (Homo sapiens, UniProt Q9NSY1).
Experiment [2] addresses Bone morphogenetic protein receptor type-1A (Homo sapiens, UniProt P36894).
The target of experiment [3] is Bone morphogenetic protein receptor type-1B (Homo sapiens, UniProt O00238).
Experiment [4] concerns the target Serine/threonine-protein kinase MRCK gamma (Homo sapiens, UniProt Q6DT37).
Experiment [5] deals with Cyclin-dependent kinase 13 (Homo sapiens, UniProt Q14004).
For experiment [6], the target named is T1, Serine/threonine-protein kinase Chk1 (Homo sapiens, UniProt O14757).
T1 sequence (O14757 whole entry): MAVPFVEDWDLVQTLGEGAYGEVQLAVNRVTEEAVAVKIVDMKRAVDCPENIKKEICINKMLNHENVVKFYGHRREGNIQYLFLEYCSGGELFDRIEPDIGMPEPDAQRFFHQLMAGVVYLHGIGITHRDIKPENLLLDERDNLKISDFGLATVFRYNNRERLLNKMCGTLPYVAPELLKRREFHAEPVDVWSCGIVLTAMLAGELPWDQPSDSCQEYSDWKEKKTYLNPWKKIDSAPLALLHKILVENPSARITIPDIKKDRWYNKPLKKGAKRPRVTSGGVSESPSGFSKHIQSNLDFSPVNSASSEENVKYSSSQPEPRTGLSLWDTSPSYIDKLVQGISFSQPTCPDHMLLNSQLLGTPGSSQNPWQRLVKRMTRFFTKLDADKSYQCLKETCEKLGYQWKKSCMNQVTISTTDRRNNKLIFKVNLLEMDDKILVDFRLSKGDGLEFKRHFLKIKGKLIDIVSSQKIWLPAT

Experiment [7] concerns the target Tyrosine-protein kinase CSK (Homo sapiens, UniProt P41240).
The next experiment concerns the target Ephrin type-A receptor 7 (Homo sapiens, UniProt Q15375).
The next experiment deals with T2, Ephrin type-B receptor 2 (Homo sapiens, UniProt P29323).
T2 sequence (P29323 whole entry): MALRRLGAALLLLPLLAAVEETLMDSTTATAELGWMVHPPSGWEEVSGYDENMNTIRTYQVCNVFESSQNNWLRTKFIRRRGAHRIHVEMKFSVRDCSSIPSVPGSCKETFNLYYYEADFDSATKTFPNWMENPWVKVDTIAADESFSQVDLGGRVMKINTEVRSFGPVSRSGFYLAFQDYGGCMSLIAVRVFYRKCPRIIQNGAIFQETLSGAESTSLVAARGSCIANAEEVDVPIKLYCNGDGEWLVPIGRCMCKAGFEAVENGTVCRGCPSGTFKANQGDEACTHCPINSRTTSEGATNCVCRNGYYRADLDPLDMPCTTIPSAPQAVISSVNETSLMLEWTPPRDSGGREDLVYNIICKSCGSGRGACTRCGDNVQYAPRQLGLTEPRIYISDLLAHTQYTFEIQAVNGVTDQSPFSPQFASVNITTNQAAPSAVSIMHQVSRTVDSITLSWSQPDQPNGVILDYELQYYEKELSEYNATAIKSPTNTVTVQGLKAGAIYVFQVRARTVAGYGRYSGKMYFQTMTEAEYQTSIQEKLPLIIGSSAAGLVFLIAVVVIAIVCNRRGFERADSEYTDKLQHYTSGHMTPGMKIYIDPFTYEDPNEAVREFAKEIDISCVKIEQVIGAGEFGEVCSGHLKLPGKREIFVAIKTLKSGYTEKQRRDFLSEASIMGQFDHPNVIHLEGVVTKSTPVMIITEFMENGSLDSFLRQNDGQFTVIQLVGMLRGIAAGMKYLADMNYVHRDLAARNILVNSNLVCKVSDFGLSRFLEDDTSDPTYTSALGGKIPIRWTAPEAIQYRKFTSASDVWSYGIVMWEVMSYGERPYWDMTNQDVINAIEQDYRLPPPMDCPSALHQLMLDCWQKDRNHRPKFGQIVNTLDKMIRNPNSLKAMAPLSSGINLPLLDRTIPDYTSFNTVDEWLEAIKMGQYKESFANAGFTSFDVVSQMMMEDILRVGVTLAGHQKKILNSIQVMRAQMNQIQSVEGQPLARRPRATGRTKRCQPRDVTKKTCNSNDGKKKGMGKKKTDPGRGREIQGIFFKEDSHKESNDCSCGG

The target of experiment [8] is Tyrosine-protein kinase Fyn (Homo sapiens, UniProt P06241).
The target in experiment [9] is Dual specificity mitogen-activated protein kinase kinase 2 (Homo sapiens, UniProt P36507).
For experiment [10], the target named is Mitogen-activated protein kinase 11 (Homo sapiens, UniProt Q15759).
In experiment [11] the target is cAMP-dependent protein kinase catalytic subunit beta (Homo sapiens, UniProt P22694).
In experiment [12] the target is cAMP-dependent protein kinase type II-alpha regulatory subunit (Homo sapiens, UniProt P13861).
In experiment [13] the target is Protein kinase C delta type (Homo sapiens, UniProt Q05655).
The target of experiment [14] is GTP-binding nuclear protein Ran (Homo sapiens, UniProt P62826).
Experiment [15] deals with Receptor-interacting serine/threonine-protein kinase 2 (Homo sapiens, UniProt O43353).
For experiment [16], the target named is T3, STE20-related kinase adapter protein alpha (Homo sapiens, UniProt Q7RTN6).
T3 sequence (Q7RTN6 whole entry): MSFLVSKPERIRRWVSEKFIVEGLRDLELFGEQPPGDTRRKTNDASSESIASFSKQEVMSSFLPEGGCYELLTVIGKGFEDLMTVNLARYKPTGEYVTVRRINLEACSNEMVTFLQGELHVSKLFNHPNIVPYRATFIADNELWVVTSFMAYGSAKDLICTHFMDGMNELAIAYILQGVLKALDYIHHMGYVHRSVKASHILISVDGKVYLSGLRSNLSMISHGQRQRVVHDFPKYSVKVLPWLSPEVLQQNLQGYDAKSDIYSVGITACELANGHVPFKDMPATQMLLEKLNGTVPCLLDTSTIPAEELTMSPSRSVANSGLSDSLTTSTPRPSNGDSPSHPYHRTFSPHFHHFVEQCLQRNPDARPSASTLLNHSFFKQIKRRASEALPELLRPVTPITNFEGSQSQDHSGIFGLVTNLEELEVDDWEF

Experiment [17] has as its target Non-receptor tyrosine-protein kinase TYK2 (Homo sapiens, UniProt P29597).

Sequence of Receptor-interacting serine/threonine-protein kinase 2 (O43353 whole entry): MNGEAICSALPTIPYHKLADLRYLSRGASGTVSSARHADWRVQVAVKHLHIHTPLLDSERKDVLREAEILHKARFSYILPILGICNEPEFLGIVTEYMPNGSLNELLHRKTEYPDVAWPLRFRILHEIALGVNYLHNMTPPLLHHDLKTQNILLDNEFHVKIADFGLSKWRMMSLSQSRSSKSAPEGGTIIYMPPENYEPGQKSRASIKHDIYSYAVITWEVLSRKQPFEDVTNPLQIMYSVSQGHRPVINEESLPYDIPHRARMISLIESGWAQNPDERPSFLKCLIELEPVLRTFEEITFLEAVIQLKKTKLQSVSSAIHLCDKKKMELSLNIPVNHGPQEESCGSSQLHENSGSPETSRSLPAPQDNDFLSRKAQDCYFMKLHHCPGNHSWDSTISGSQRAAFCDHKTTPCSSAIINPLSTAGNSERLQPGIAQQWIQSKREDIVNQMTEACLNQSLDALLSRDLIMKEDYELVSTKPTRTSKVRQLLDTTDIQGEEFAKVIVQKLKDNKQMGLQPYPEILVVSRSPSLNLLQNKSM
Sequence of Tyrosine-protein kinase CSK (P41240 whole entry): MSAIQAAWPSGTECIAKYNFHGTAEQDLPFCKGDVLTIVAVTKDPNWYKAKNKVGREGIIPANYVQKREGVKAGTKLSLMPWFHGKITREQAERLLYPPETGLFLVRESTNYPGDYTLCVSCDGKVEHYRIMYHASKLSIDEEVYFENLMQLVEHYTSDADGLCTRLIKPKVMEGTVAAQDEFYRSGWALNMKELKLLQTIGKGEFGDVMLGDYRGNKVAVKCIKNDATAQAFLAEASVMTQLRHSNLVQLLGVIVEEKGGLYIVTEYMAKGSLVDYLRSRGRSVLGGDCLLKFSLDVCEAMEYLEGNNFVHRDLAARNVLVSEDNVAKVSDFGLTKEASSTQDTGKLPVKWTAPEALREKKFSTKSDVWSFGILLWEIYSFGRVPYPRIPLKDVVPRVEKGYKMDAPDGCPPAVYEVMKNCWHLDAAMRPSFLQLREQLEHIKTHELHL
Sequence of Dual specificity mitogen-activated protein kinase kinase 2 (P36507 whole entry): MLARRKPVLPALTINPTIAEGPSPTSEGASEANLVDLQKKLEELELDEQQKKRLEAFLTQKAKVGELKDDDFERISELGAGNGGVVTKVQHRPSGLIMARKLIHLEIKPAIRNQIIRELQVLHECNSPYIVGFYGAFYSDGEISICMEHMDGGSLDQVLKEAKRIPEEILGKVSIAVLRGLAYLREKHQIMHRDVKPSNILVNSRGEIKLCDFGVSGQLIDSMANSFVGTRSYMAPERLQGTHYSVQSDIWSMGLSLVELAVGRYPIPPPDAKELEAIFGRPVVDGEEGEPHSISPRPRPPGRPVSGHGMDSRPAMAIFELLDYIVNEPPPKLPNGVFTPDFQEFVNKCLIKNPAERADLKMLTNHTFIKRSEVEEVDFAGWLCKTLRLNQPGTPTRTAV
Sequence of Bone morphogenetic protein receptor type-1A (P36894 whole entry): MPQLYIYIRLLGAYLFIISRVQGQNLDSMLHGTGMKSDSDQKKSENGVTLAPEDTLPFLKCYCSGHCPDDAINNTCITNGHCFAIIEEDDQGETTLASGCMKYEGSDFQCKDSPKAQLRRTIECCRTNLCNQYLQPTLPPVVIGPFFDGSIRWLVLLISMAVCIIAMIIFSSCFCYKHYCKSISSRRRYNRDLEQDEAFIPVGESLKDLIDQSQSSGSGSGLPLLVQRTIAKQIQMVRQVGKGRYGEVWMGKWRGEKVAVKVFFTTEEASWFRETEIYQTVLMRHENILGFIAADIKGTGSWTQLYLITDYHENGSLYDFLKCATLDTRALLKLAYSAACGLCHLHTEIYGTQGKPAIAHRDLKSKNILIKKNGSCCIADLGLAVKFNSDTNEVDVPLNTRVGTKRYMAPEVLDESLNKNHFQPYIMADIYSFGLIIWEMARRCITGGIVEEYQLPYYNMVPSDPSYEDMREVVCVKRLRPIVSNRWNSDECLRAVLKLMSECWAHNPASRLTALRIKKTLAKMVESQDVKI
Sequence of Cyclin-dependent kinase 13 (Q14004 whole entry): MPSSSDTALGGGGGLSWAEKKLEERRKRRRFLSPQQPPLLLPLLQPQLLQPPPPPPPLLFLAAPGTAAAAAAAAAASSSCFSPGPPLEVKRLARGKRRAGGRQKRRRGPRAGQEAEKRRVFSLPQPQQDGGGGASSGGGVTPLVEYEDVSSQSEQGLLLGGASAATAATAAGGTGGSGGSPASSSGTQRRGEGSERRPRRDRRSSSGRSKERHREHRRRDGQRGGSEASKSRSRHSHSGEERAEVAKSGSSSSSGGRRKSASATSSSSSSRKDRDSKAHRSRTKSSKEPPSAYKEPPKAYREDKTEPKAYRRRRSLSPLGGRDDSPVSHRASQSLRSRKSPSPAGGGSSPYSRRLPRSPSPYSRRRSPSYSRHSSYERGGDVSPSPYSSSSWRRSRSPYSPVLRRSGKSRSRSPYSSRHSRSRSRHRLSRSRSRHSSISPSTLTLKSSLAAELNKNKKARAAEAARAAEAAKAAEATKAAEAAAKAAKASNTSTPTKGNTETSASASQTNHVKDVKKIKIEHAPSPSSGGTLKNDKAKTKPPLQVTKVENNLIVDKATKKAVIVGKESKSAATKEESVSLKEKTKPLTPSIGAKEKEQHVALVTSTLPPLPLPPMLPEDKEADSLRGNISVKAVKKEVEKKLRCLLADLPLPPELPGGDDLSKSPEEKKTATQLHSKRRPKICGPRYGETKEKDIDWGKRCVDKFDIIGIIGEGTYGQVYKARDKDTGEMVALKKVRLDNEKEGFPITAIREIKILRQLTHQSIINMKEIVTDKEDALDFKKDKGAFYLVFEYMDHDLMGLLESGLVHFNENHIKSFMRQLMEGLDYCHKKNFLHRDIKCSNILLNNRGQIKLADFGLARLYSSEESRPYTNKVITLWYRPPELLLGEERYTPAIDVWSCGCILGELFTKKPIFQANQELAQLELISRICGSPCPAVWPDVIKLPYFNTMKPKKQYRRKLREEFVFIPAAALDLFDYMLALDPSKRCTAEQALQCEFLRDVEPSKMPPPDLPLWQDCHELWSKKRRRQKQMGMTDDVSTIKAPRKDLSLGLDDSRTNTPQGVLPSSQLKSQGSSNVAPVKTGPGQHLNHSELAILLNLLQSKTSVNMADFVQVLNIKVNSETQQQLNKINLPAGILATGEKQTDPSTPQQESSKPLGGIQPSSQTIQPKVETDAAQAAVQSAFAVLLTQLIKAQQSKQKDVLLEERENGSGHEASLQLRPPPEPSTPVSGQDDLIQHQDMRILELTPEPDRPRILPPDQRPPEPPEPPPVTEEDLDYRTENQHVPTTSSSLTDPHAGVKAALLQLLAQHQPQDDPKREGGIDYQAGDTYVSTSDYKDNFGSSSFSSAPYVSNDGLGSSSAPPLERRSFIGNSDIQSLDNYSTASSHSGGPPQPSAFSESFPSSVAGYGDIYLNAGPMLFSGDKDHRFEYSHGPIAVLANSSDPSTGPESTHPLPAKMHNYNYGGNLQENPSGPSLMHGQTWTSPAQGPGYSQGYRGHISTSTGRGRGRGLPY
Sequence of cAMP-dependent protein kinase type II-alpha regulatory subunit (P13861 whole entry): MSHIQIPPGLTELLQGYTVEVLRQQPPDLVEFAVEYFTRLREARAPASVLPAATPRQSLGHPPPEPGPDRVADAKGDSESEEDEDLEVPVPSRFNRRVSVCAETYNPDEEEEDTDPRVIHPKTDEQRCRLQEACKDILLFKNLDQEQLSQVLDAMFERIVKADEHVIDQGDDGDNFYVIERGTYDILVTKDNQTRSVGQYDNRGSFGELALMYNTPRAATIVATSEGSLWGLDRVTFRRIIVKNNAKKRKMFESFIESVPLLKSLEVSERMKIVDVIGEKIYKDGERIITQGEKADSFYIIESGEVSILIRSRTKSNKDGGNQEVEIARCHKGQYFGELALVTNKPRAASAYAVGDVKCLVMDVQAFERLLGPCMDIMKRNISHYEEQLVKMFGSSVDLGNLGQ
Sequence of Protein kinase C delta type (Q05655 whole entry): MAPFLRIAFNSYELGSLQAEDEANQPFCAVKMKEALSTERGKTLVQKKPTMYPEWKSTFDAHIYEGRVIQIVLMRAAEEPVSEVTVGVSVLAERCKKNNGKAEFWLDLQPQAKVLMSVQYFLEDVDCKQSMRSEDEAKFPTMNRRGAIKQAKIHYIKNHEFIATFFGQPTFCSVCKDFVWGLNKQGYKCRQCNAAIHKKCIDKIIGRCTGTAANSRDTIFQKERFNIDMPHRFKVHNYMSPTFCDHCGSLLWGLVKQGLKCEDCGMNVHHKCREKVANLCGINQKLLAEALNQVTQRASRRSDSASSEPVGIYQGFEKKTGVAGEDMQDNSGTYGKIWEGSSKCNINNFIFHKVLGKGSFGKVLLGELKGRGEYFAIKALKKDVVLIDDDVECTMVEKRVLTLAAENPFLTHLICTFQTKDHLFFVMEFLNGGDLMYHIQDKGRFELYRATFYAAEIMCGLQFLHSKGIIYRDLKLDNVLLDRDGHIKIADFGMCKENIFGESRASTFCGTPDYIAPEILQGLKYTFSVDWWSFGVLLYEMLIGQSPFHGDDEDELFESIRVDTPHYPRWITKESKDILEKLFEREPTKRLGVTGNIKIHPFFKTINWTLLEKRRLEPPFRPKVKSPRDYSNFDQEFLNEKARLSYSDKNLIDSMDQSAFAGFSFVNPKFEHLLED
Sequence of Tyrosine-protein kinase Fyn (P06241 whole entry): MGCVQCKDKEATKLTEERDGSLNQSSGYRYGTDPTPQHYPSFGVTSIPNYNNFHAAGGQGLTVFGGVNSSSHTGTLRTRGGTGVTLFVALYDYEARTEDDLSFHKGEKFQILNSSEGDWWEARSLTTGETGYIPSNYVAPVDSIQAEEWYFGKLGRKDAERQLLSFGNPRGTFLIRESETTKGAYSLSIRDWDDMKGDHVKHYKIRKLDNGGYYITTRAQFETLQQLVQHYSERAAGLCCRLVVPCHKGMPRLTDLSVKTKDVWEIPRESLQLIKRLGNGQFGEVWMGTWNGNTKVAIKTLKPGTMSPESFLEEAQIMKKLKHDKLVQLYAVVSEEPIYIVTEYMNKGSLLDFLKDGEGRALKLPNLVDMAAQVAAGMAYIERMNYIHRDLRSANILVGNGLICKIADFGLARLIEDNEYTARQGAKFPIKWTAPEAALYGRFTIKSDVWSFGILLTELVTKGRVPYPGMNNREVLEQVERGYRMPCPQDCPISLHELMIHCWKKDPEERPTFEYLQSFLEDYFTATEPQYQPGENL

For the compound `Cc1cc(Nc2nc(N[C@@H](C)c3ncc(F)cn3)ncc2Cl)n[nH]1` [AZD-1480], the Kd in experiment [1], in experiment [2], in [3], in experiment [4], in experiment [5] and in experiment [6] was > 30 µM (inactive) throughout. In addition, the Kd (in [7]; on Ephrin type-A receptor 7; on Ephrin type-B receptor 2; in experiment [8]; in experiment [9]; in experiment [10]) was > 30 µM (inactive) in each case. For the same compound, the Kd (commonly the free concentration of one partner at which half of the binding sites on the other are occupied at equilibrium, for simple one-to-one binding) is > 30 µM (inactive) in [11]; > 30 µM (inactive) in [12]; > 30 µM (inactive) in experiment [13]; > 30 µM (inactive) in experiment [14]; > 30 µM (inactive) in [15]; 0.316 µM in experiment [16]. The Kd in experiment [17] is > 30 µM (inactive).

As for `Cc1ccc(C(=O)Nc2ccc(Oc3cc4cnn(C)c4cc3-c3cn[nH]c3)c(F)c2)c(=O)n1-c1ccc(F)cc1` [MERESTINIB], the Kd in experiment [1], in [2], in [3], in experiment [4], in experiment [5] and in experiment [6] was > 30 µM (inactive) each time. Besides, the Kd (in [7]; on Ephrin type-A receptor 7; on Ephrin type-B receptor 2; in [8]; in experiment [9]; in experiment [10]) was > 30 µM (inactive) in each case. The Kd in [11], in experiment [12], in experiment [13], in experiment [14], in [15] and in experiment [16] was > 30 µM (inactive) in each case. Also, the Kd in [17] is > 30 µM (inactive).

As for `C#Cc1cccc(Nc2ncnc3cc4c(cc23)OCCOCCOCCO4)c1` [ICOTINIB], the Kd in experiment [1], in experiment [2], in experiment [3], in [4], in experiment [5] and in [6] was > 30 µM (inactive) in each case. Further, the Kd (in experiment [7]; at Ephrin type-A receptor 7; at Ephrin type-B receptor 2; in experiment [8]; in experiment [9]; in [10]) was > 30 µM (inactive) each time. Also, the Kd is > 30 µM (inactive) in experiment [11]; > 30 µM (inactive) in [12]; > 30 µM (inactive) in experiment [13]; > 30 µM (inactive) in experiment [14]; 2.63 µM (active) in [15]; > 30 µM (inactive) in experiment [16]. For the same compound, the Kd in [17] is > 30 µM (inactive).

With `CC1(COc2ccc3c(c2)ncn3-c2ccc3cccc(N4CCC(N)CC4)c3n2)COC1` [CRENOLANIB], the Kd in experiment [1] was 1.2 µM (active); in experiment [2] it was > 30 µM (inactive); in [3], > 30 µM (inactive); in experiment [4], > 30 µM (inactive); in experiment [5], > 30 µM (inactive); in [6], > 30 µM (inactive). Also, the Kd (in [7]; on Ephrin type-A receptor 7; on Ephrin type-B receptor 2; in experiment [8]; in experiment [9]; in experiment [10]) was > 30 µM (inactive) each time. Also, the Kd is > 30 µM (inactive) in experiment [11]; > 30 µM (inactive) in experiment [12]; > 30 µM (inactive) in experiment [14]; 1.31 µM (active) in [15]; > 30 µM (inactive) in experiment [16]; > 30 µM (inactive) in experiment [17].

For the compound `C=CC(=O)Nc1cccc(Nc2nc(Nc3ccc(N4CCN(C(C)=O)CC4)cc3OC)ncc2C(F)(F)F)c1` [ROCILETINIB], the Kd in experiment [1], in experiment [2], in experiment [3], in experiment [4], in experiment [5] and in [6] was > 30 µM (inactive) each time. Further, the Kd (in experiment [7]; at Ephrin type-A receptor 7; at Ephrin type-B receptor 2; in experiment [8]; in [9]; in [13]) was > 30 µM (inactive) in each case. Moreover, the Kd in experiment [14], in [15], in experiment [16] and in experiment [17] was > 30 µM (inactive) each time.

On to `COc1cccc(Nc2ncnn3ccc(CN4CC[C@@H](N)[C@H](O)C4)c23)c1` [BMS-690514], for which the dissociation constant (Kd) was 1.71 µM (active) in [1]; > 30 µM (inactive) in [2]; > 30 µM (inactive) in experiment [3]; > 30 µM (inactive) in [5]; 1.87 µM (active) in [6]; 1.72 µM (active) in experiment [7]. Also, the Kd was > 30 µM (inactive) at Ephrin type-A receptor 7; > 30 µM (inactive) at Ephrin type-B receptor 2; 0.583 µM (active) in experiment [8]; > 30 µM (inactive) in [9]; > 30 µM (inactive) in [10]; 1.21 µM (active) in [11]. Also, the Kd in experiment [12] was > 30 µM (inactive); in [13] it was 1.74 µM (active); in experiment [14] it was > 30 µM (inactive); in [15], > 30 µM (inactive); in experiment [16], > 30 µM (inactive); in [17], > 30 µM (inactive).
